Assay results published in US9452170B2, “Compounds and methods for inducing chondrogenesis” (The California Institute for Biomedical Research, priority 2013, dated 2016).

test system: Human MSCs; test: Human chondrocyte differentiation assay (immunostaining for type II collagen, Sox9 and COMP); type: cell-based; settings: 168 h, compound 1 μM, 7 days, vs DMSO vehicle, read-out: Biological Activity (increase in staining intensity compared to vehicle control)
Procedure: Human MSCs (50,000) were plated into each well of a 96-well plate and cultured overnight. Compounds (in DMSO solution) were added to the cells at a final concentration of 1 μM, and the cells were cultured for 7 days at 5% CO2, 37° C. The cells were fixed with 10% formalin solution at room temperature for 10 min, and immunostained using antibodies specific for type II collagen (Abcam), Sox9 (Santa Cruz) and cartilage oligomeric matrix protein (COMP, Santa Cruz), and fluorescently labeled secondary antibodies (Li-Cor). The total intensity of the staining was measured using Oddyssey CLx imaging system (Li-Cor). Vehicle (DMSO) was used as control to determine the basal level of chondrocyte differentiation. […] Representative data are shown in Table 1 [A: >50% increase in staining intensity compared to vehicle control; B: 30-50% increase in staining intensity compared to vehicle control].

`N#Cc1ccc(Cl)c(NC(=O)c2ccccc2C(=O)O)c1` [Compound 1] and `N#Cc1ccc(F)c(NC(=O)c2ccccc2C(=O)O)c1` [Compound 34] fall in the same range of activation at 1 µM: 30 to 50% for the first, 30 to 50% for the second.

`N#Cc1cc(NC(=O)c2ccccc2C(=O)O)ccc1Cl` [Compound 2] and `N#Cc1cc(NC(=O)c2ccccc2C(=O)O)ccc1F` [Compound 36] fall in the same range of activation at 1 µM: 30 to 50% for the first, 30 to 50% for the second.

`N#Cc1cc(Cl)cc(NC(=O)c2ccccc2C(=O)O)c1` [Compound 3] and `N#Cc1cc(F)cc(NC(=O)c2ccccc2C(=O)O)c1` [Compound 37] cannot be ordered by activation at 1 µM: over 50% for the first, over 50% for the second.

First: CC(=O)c1ccc(Cl)c(NC(=O)c2ccccc2C(=O)O)c1 [Compound 4]
Second: CC(=O)c1ccc(F)c(NC(=O)c2ccccc2C(=O)O)c1 [Compound 30]
The activation at 1 µM of the first is higher: over 50% for the first, 30 to 50% for the second.

`CC(=O)c1cc(NC(=O)c2ccccc2C(=O)O)ccc1Cl` [Compound 5] and `CC(=O)c1cc(NC(=O)c2ccccc2C(=O)O)ccc1F` [Compound 31] fall in the same range of activation at 1 µM: 30 to 50% for the first, 30 to 50% for the second.

`COc1ccc(C#N)cc1NC(=O)c1ccccc1C(=O)O` [Compound 6] and `COc1ccc(NC(=O)c2ccccc2C(=O)O)cc1C#N` [Compound 7] cannot be ordered by activation at 1 µM: over 50% for the first, over 50% for the second.

`N#Cc1cc(Cl)ccc1NC(=O)c1ccccc1C(=O)O` [Compound 8] and `Cc1ccc(NC(=O)c2ccccc2C(=O)O)c(C#N)c1` [Compound 13] fall in the same range of activation at 1 µM: 30 to 50% for the first, 30 to 50% for the second.

Compared with `N#Cc1cc(NC(=O)c2ccccc2C(=O)O)cc(C(F)(F)F)c1` [Compound 9], `O=C(O)c1ccccc1C(=O)Nc1cc(Cl)cc(C(F)(F)F)c1` [Compound 12] is lower in activation at 1 µM: over 50% for the first, 30 to 50% for the second.

`O=C(O)c1ccccc1C(=O)Nc1ccc(C(F)(F)F)c(F)c1` [Compound 10] and `O=C(O)c1ccccc1C(=O)Nc1ccc(Cl)cc1C(F)(F)F` [Compound 11] fall in the same range of activation at 1 µM: 30 to 50% for the first, 30 to 50% for the second.

`CC(=O)c1ccc(OC(F)F)c(NC(=O)c2ccccc2C(=O)O)c1` [Compound 14] and `N#Cc1cccc(NC(=O)c2ccccc2C(=O)O)c1F` [Compound 35] fall in the same range of activation at 1 µM: 30 to 50% for the first, 30 to 50% for the second.

`NS(=O)(=O)c1ccc(N2C(=O)c3ccccc3C2=O)cc1` [Compound 15] and `NS(=O)(=O)c1ccc(N2Cc3ccccc3C2=O)cc1` [Compound 26] fall in the same range of activation at 1 µM: 30 to 50% for the first, 30 to 50% for the second.

Compared with `COc1ccc2c(c1)C(=O)N(c1ccc(C(=O)O)cc1)C2=O` [Compound 16], `Cc1ccc2c(c1)C(=O)N(c1ccc(C(=O)O)cc1)C2=O` [Compound 33] is lower in activation at 1 µM: over 50% for the first, 30 to 50% for the second.

Compared with `O=C(O)c1ccccc1C(=O)Nc1ccccc1OC(F)(F)F` [Compound 17], `COc1ccccc1NC(=O)c1ccccc1C(=O)O` [Compound 68] is higher in activation at 1 µM: 30 to 50% for the first, over 50% for the second.

`O=C(O)c1ccccc1C(=O)Nc1cccc(C(F)(F)F)c1` [Compound 18] and `O=C(O)c1ccccc1C(=O)Nc1cccc(OC(F)(F)F)c1` [Compound 19] cannot be ordered by activation at 1 µM: over 50% for the first, over 50% for the second.

`Cc1ncsc1NC(=O)c1ccccc1C(=O)O` [Compound 22] and `O=C(O)c1ccccc1C(=O)Nc1nccs1` [Compound 29] fall in the same range of activation at 1 µM: 30 to 50% for the first, 30 to 50% for the second.

First: CC(C(=O)c1ccc(C#N)cc1)C1OC(=O)c2ccccc21 (stereo not drawn) [Compound 23]
Second: N#Cc1ccc(C(=O)CC2OC(=O)c3ccccc32)cc1 (stereo not drawn) [Compound 25]
The activation at 1 µM of the first is higher: over 50% for the first, 30 to 50% for the second.

Compared with `N#Cc1ccc(C(=O)CC2NC(=O)c3ccccc32)cc1` (stereo not drawn) [Compound 24], `N#Cc1cccc(C(=O)CC2NC(=O)c3ccccc32)c1` (stereo not drawn) [Compound 39] is lower in activation at 1 µM: over 50% for the first, 30 to 50% for the second.

`CNS(=O)(=O)c1ccc(N2CCCC2=O)cc1` [Compound 28] and `O=C(O)c1ccc(S(=O)(=O)Nc2ccccc2C(=O)O)cc1` [Compound 53] fall in the same range of activation at 1 µM: 30 to 50% for the first, 30 to 50% for the second.

`CC(C)(CO)c1ccc(NC(=O)c2ccccc2C(=O)O)cc1` [Compound 32] and `CC(O)Cc1ccc(NC(=O)c2ccccc2C(=O)O)cc1` (stereo not drawn) [Compound 52] fall in the same range of activation at 1 µM: 30 to 50% for the first, 30 to 50% for the second.

First: CS(=O)(=O)c1cccc(NC(=O)c2ccccc2C(=O)O)c1 [Compound 38]
Second: CS(=O)(=O)NCc1cccc(NC(=O)c2ccccc2C(=O)O)c1 [Compound 72]
The activation at 1 µM of the first is lower: 30 to 50% for the first, over 50% for the second.

First: N#Cc1ccccc1C(=O)CC1OC(=O)c2ccccc21 (stereo not drawn) [Compound 40]
Second: O=C(CC1OC(=O)c2ccccc21)c1ccccc1Cl (stereo not drawn) [Compound 41]
The activation at 1 µM of the first is lower: 30 to 50% for the first, over 50% for the second.

`O=C(CC1NC(=O)c2ccccc21)c1ccc(C(F)(F)F)cc1` (stereo not drawn) [Compound 42] and `CS(=O)(=O)c1ccc(C(=O)CC2OC(=O)c3ccccc32)cc1` (stereo not drawn) [Compound 44] fall in the same range of activation at 1 µM: 30 to 50% for the first, 30 to 50% for the second.

`CS(=O)(=O)Nc1ccccc1C(=O)Nc1ccc(CC#N)cc1` [Compound 45] and `CS(=O)(=O)Nc1ccccc1C(=O)Nc1ccc(Br)cc1` [Compound 46] fall in the same range of activation at 1 µM: 30 to 50% for the first, 30 to 50% for the second.

`O=C(O)Cc1ccccc1C(=O)Nc1ccc(CCO)cc1` [Compound 47] and `NC(=O)Cc1ccc(NC(=O)c2ccccc2C(=O)O)cc1` [Compound 51] fall in the same range of activation at 1 µM: 30 to 50% for the first, 30 to 50% for the second.

First: COc1cccc(NC(=O)c2ccccc2C(=O)O)c1 [Compound 48]
Second: NCc1cccc(NC(=O)c2ccccc2C(=O)O)c1 [Compound 71]
The activation at 1 µM of the first is lower: 30 to 50% for the first, over 50% for the second.

`COC(=O)N(C)Cc1cccc(NC(=O)c2ccccc2C(=O)O)c1` [Compound 49] and `CC(=O)N(C)Cc1cccc(NC(=O)c2ccccc2C(=O)O)c1` [Compound 50] fall in the same range of activation at 1 µM: 30 to 50% for the first, 30 to 50% for the second.

First: N#Cc1ccc(C(=O)Nc2cnccc2C(=O)O)cc1 [Compound 54]
Second: Cc1cnccc1NC(=O)c1ccccc1C(=O)O [Compound 67]
The activation at 1 µM of the first is lower: 30 to 50% for the first, over 50% for the second.

`O=C(O)c1ccccc1NC(=O)c1ccccc1C(=O)O` [Compound 55] and `N#Cc1ccccc1NC(=O)c1ccccc1C(=O)O` [Compound 70] cannot be ordered by activation at 1 µM: over 50% for the first, over 50% for the second.

First: CN(C)S(=O)(=O)c1ccccc1NC(=O)c1ccc(C#N)cc1 [Compound 56]
Second: CN(C(N)=O)c1ccccc1C(=O)Nc1ccc(C#N)cc1 [Compound 75]
The activation at 1 µM of the first is higher: over 50% for the first, 30 to 50% for the second.

`O=C(O)c1ccccc1C(=O)Nc1ccccc1CCO` [Compound 57] and `C/C(=N\O)c1cccc(NC(=O)c2ccccc2C(=O)O)c1` [Compound 58] fall in the same range of activation at 1 µM: 30 to 50% for the first, 30 to 50% for the second.

`CON=C(C)c1cccc(NC(=O)c2ccccc2C(=O)O)c1` [Compound 59] and `Cc1cc(NC(=O)c2ccccc2C(=O)O)ccn1` [Compound 66] fall in the same range of activation at 1 µM: 30 to 50% for the first, 30 to 50% for the second.

`N#Cc1ccc(NC(=O)c2ccccc2-c2ccc(C(=O)O)cc2)cc1` [Compound 60] and `N#Cc1ccc(NC(=O)c2ccccc2-c2ccccc2C(=O)O)cc1` [Compound 61] cannot be ordered by activation at 1 µM: over 50% for the first, over 50% for the second.

Compared with `O=C(O)c1ccccc1C(=O)Nc1ccc2c(c1)OCCO2` [Compound 64], `O=C(O)c1ccccc1C(=O)Nc1ccc2c(c1)OCO2` [Compound 65] is higher in activation at 1 µM: 30 to 50% for the first, over 50% for the second.

`O=C(O)c1ccccc1C(=O)NCc1cc(C(F)(F)F)cc(C(F)(F)F)c1` [Compound 69] and `O=C(O)c1ccccc1C(=O)Nc1ccc(-c2ncc[nH]2)cc1` [Compound 74] fall in the same range of activation at 1 µM: 30 to 50% for the first, 30 to 50% for the second.

`N#Cc1ccc(NC(=O)c2ccccc2NS(=O)(=O)c2ccccc2)cc1` [Compound 77] was tested, and the activation at 1 µM was over 50%.
